# Source: PubChem BioAssay (NCI)
#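 Tested at 5 concentrations; 48 h exposure; 96-well plates; endpoints linearly interpolated, else capped at highest concentration. TGI is the concentration that stops growth completely.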
# Key:
# Assay in all cases: inhibition of tumour cell growth, NCI panel, 48 h
# HT29 colon = tested on: HT29 colon
# MCF7 breast = tested on: MCF7 breast
# EKVX NSCLC = tested on: EKVX NSCLC
# ACHN renal = tested on: ACHN renal
# RPMI-8226 leukemia = tested on: RPMI-8226 leukemia
# CAKI-1 renal = tested on: CAKI-1 renal
# SF-268 CNS = tested on: SF-268 CNS
# CCRF-CEM leukemia = tested on: CCRF-CEM leukemia
# A498 renal = tested on: A498 renal
# SNB-75 CNS = tested on: SNB-75 CNS
# NCI-H23 lung = tested on: NCI-H23 lung
# COLO 205 colon = tested on: COLO 205 colon
# T-47D breast = tested on: T-47D breast
# HS 578T breast = tested on: HS 578T breast
# SK-MEL-28 melanoma = tested on: SK-MEL-28 melanoma
# SNB-19 CNS = tested on: SNB-19 CNS
# RXF 393 renal = tested on: RXF 393 renal
# K-562 leukemia = tested on: K-562 leukemia
# OVCAR-4 ovarian = tested on: OVCAR-4 ovarian
# SN12C renal = tested on: SN12C renal
# SR leukemia = tested on: SR leukemia
# UACC-257 melanoma = tested on: UACC-257 melanoma
# UACC-62 melanoma = tested on: UACC-62 melanoma
# NCI-H522 lung = tested on: NCI-H522 lung
# MALME-3M melanoma = tested on: MALME-3M melanoma
# SK-OV-3 ovarian = tested on: SK-OV-3 ovarian
# MDA-MB-231 breast = tested on: MDA-MB-231 breast
# NCI-H460 lung = tested on: NCI-H460 lung
# MOLT-4 leukemia = tested on: MOLT-4 leukemia
# KM12 colon = tested on: KM12 colon
# 786-0 renal = tested on: 786-0 renal
# A549 NSCLC = tested on: A549 NSCLC
# HCT-15 colon = tested on: HCT-15 colon
# SK-MEL-2 melanoma = tested on: SK-MEL-2 melanoma
# OVCAR-3 ovarian = tested on: OVCAR-3 ovarian
# SW-620 colon = tested on: SW-620 colon
# MDA-N = tested on: MDA-N
# HCT-116 colon = tested on: HCT-116 colon
# UO-31 renal = tested on: UO-31 renal
# DU-145 prostate = tested on: DU-145 prostate
# TK-10 renal = tested on: TK-10 renal
# HCC-2998 colon = tested on: HCC-2998 colon
# M14 melanoma = tested on: M14 melanoma
# SF-295 CNS = tested on: SF-295 CNS
# OVCAR-5 ovarian = tested on: OVCAR-5 ovarian
# MDA-MB-435 = tested on: MDA-MB-435
# PC-3 prostate = tested on: PC-3 prostate
# U251 CNS = tested on: U251 CNS
# OVCAR-8 ovarian = tested on: OVCAR-8 ovarian
# NCI/ADR-RES ovarian = tested on: NCI/ADR-RES ovarian
# IGROV1 ovarian = tested on: IGROV1 ovarian
# HOP-62 NSCLC = tested on: HOP-62 NSCLC
# BT-549 breast = tested on: BT-549 breast
# SK-MEL-5 melanoma = tested on: SK-MEL-5 melanoma
# NCI-H226 lung = tested on: NCI-H226 lung
# LOX IMVI melanoma = tested on: LOX IMVI melanoma
# SF-539 CNS = tested on: SF-539 CNS
# HL-60(TB) leukemia = tested on: HL-60(TB) leukemia
# HOP-92 NSCLC = tested on: HOP-92 NSCLC
smiles,measurement,setting,value
Cc1c(CN2CCN(C)CC2)c(CN2CCN(C)CC2)c(C)n1-c1ccc(Cl)cc1,TGI,HT29 colon,42.7 µM
same,TGI,MCF7 breast,> 100 µM
same,TGI,EKVX NSCLC,> 100 µM
same,TGI,ACHN renal,> 100 µM
same,TGI,RPMI-8226 leukemia,> 100 µM
same,TGI,CAKI-1 renal,59.9 µM
same,TGI,SF-268 CNS,> 100 µM
same,TGI,CCRF-CEM leukemia,46.8 µM
same,TGI,A498 renal,51.2 µM
same,TGI,SNB-75 CNS,88.4 µM
same,TGI,NCI-H23 lung,> 100 µM
same,TGI,COLO 205 colon,55.5 µM
same,TGI,T-47D breast,46.4 µM
same,TGI,HS 578T breast,70.6 µM
same,TGI,SK-MEL-28 melanoma,39.2 µM
same,TGI,SNB-19 CNS,> 100 µM
same,TGI,RXF 393 renal,> 100 µM
same,TGI,K-562 leukemia,> 100 µM
same,TGI,OVCAR-4 ovarian,> 100 µM
same,TGI,SN12C renal,> 100 µM
same,TGI,SR leukemia,40.8 µM
same,TGI,UACC-257 melanoma,29.1 µM
same,TGI,UACC-62 melanoma,33.9 µM
same,TGI,NCI-H522 lung,40.8 µM
same,TGI,MALME-3M melanoma,37.5 µM
same,TGI,SK-OV-3 ovarian,> 100 µM
same,TGI,MDA-MB-231 breast,> 100 µM
same,TGI,NCI-H460 lung,> 100 µM
same,TGI,MOLT-4 leukemia,82.8 µM
same,TGI,KM12 colon,> 100 µM
same,TGI,786-0 renal,46.4 µM
same,TGI,A549 NSCLC,91.1 µM
same,TGI,HCT-15 colon,> 100 µM
same,TGI,SK-MEL-2 melanoma,46.2 µM
same,TGI,OVCAR-3 ovarian,> 100 µM
same,TGI,SW-620 colon,> 100 µM
same,TGI,MDA-N,58.5 µM
same,TGI,HCT-116 colon,> 100 µM
same,TGI,UO-31 renal,87.9 µM
same,TGI,DU-145 prostate,> 100 µM
same,TGI,TK-10 renal,47.8 µM
same,TGI,HCC-2998 colon,> 100 µM
same,TGI,M14 melanoma,32 µM
same,TGI,SF-295 CNS,48.9 µM
same,TGI,OVCAR-5 ovarian,> 100 µM
same,TGI,MDA-MB-435,62.7 µM
same,TGI,PC-3 prostate,> 100 µM
same,TGI,U251 CNS,> 100 µM
same,TGI,OVCAR-8 ovarian,51.6 µM
same,TGI,NCI/ADR-RES ovarian,> 100 µM
same,TGI,IGROV1 ovarian,> 100 µM
same,TGI,HOP-62 NSCLC,> 100 µM
same,TGI,BT-549 breast,> 100 µM
same,TGI,SK-MEL-5 melanoma,31.7 µM
same,TGI,NCI-H226 lung,> 100 µM
O=C(/C=C/C(=O)N1CCCC1)N1CCCC1,TGI,HT29 colon,> 100 µM
same,TGI,MCF7 breast,> 100 µM
same,TGI,EKVX NSCLC,> 100 µM
same,TGI,ACHN renal,> 100 µM
same,TGI,RPMI-8226 leukemia,> 100 µM
same,TGI,CAKI-1 renal,> 100 µM
same,TGI,SF-268 CNS,> 100 µM
same,TGI,CCRF-CEM leukemia,> 100 µM
same,TGI,A498 renal,> 100 µM
same,TGI,NCI-H23 lung,> 100 µM
same,TGI,COLO 205 colon,> 100 µM
same,TGI,LOX IMVI melanoma,> 100 µM
same,TGI,T-47D breast,> 100 µM
same,TGI,HS 578T breast,> 100 µM
same,TGI,SK-MEL-28 melanoma,> 100 µM
same,TGI,SNB-19 CNS,> 100 µM
same,TGI,RXF 393 renal,> 100 µM
same,TGI,K-562 leukemia,> 100 µM
same,TGI,OVCAR-4 ovarian,> 100 µM
same,TGI,SN12C renal,> 100 µM
same,TGI,SR leukemia,> 100 µM
same,TGI,UACC-257 melanoma,> 100 µM
same,TGI,UACC-62 melanoma,> 100 µM
same,TGI,SF-539 CNS,> 100 µM
same,TGI,NCI-H522 lung,> 100 µM
same,TGI,MALME-3M melanoma,> 100 µM
same,TGI,SK-OV-3 ovarian,> 100 µM
same,TGI,MDA-MB-231 breast,> 100 µM
same,TGI,HL-60(TB) leukemia,> 100 µM
same,TGI,NCI-H460 lung,> 100 µM
same,TGI,MOLT-4 leukemia,> 100 µM
same,TGI,KM12 colon,> 100 µM
same,TGI,786-0 renal,> 100 µM
same,TGI,A549 NSCLC,> 100 µM
same,TGI,HCT-15 colon,> 100 µM
same,TGI,SK-MEL-2 melanoma,> 100 µM
same,TGI,OVCAR-3 ovarian,> 100 µM
same,TGI,SW-620 colon,> 100 µM
same,TGI,MDA-N,> 100 µM
same,TGI,HCT-116 colon,> 100 µM
same,TGI,UO-31 renal,> 100 µM
same,TGI,DU-145 prostate,> 100 µM
same,TGI,TK-10 renal,> 100 µM
same,TGI,HCC-2998 colon,> 100 µM
same,TGI,M14 melanoma,> 100 µM
same,TGI,SF-295 CNS,> 100 µM
same,TGI,OVCAR-5 ovarian,> 100 µM
same,TGI,MDA-MB-435,> 100 µM
same,TGI,PC-3 prostate,> 100 µM
same,TGI,U251 CNS,> 100 µM
same,TGI,OVCAR-8 ovarian,> 100 µM
same,TGI,NCI/ADR-RES ovarian,> 100 µM
same,TGI,IGROV1 ovarian,> 100 µM
same,TGI,HOP-92 NSCLC,> 100 µM
same,TGI,HOP-62 NSCLC,> 100 µM
same,TGI,BT-549 breast,> 100 µM
same,TGI,SK-MEL-5 melanoma,> 100 µM
